Experimental findings from patent US20160311788A1, “Antifouling Compounds And Use Thereof” (National University of Singapore, priority 2008, published 2016) are described below.

The subject of test [1] is marine bacteria strain S4. Briefly: disc inhibition assay, strain S4. The format is cell-based, Bacillus algicola. The conditions noted are these: Guptibacillus algicola, S4, 24 h; strain 4, 30 ug. The gist of the method:
(§1)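 Zone-of-inhibition diameters (caliper, n=2 averaged) were recorded after overnight dark incubation at 35° C. Test discs of 6 mm bore 50 μg compound delivered in DMSO, placed on lawns of the marine strain grown in marine broth and spread on Marine Agar; solvent discs served as controls.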

Test [2] concerns Pseudomonas aeruginosa (strain LMG 12228; ATCC 15692). Briefly: disc inhibition assay, REF 3. The note with it: REF 3, 30 ug. In kind it is cell-based. As for the experimental part:
(§2) 13 strains of marine bacteria were isolated from fouling communities located in the coastal waters around Singapore. These were characterized in earlier studies and reported in Teo et al. (U.S. patent application Ser. No. 11/265,833) and Choong et al (in prep). In addition, four reference bacterial strains were added tested: Escherichia coli (Strain K12, ATCC 15222), E. coli (strain DH5a), Pseudomonas aeruginosa (strain LMG 12228; ATCC 15692) and P. putida (strain KT2440; ATCC 47054). All the bacteria were also tested against five antibiotics: ampicillin (AMP), tetracycline (TETR), erythromycin (ERY), chloramphenicol (CHL) and streptomycin (STREP).
(§3) Disks comprising the compounds to be tested were prepared as follows. The antibacterial assay, the pure compounds were made up to a concentration of 2 mgml^−1 in DMSO. 25 μl of the stock was pipetted onto each 6 mm sterile disc (Macherey-Nagel #484000) to obtain 50 μg of compound per disc. Equivalent volume of DMSO was used inoculated for the control.
(§4) For all disk inhibition assays, bacterial cultures were grown in marine broth (Pronadisa #1217.00). Sterile swabs dipped into the cultures were used to inoculate Marine Agar plates with a bacterial lawn by smearing the culture over the surface. After inoculating the plates, discs with antibiotics, pharmaceuticals or control blanks were placed on each plate. Each concentration of antibiotic or pharmaceutical was tested with two replicates. After the disks were placed on the agar surface, plates were incubated overnight in the dark at 35° C. After incubation, plates were examined for zones of inhibition or clearing around control and treated disks. The diameter of any zone of clearing or inhibition was measured using Vernier calipers. There were two replicates per treatment, and the average was taken. There was no zone of inhibition around the control blanks in all the assays.

The subject of test [3] is marine bacteria strain S9. Briefly: disc inhibition assay, strain S9. In kind it is cell-based, Bacillus algicola. The note with it: Guptibacillus algicola, S9, 24 h; strain 9, 30 ug. The essentials:
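50 μg compound/6 mm disc (from 2 mg/ml DMSO stock); DMSO blank disc control. Lawn swabbed on Marine Agar from marine broth culture. Overnight, 35° C, dark. Readout: inhibition zone diameter (calipers), mean of 2 replicates.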

Test [4] relates to Escherichia coli (Strain K12; ATCC 15222). Kind of test: disc inhibition assay, REF 1. In kind it is cell-based. The conditions noted are these: REF 1, 30 ug. As to the method:
as §2, §3, §4

In test [5] the test system is marine bacteria strain S18. Kind of test: disc inhibition assay, strain S18. The format is cell-based, Microbacterium esteraromaticum. The note with it: Microbacterium esteraromaticum, S18, 24 h; strain 18, 30 ug.
Test [6] relates to Pseudomonas putida (Strain KT2440; BCRC 10459). Kind of test: disc inhibition assay, REF 4. The conditions noted are these: REF 4, 30 ug. In kind it is cell-based. As for the experimental part:
as §2, §3, §4

The subject of test [7] is marine bacteria strain S10. Kind of test: disc inhibition assay, strain S10. In kind it is cell-based, Halobacillus trueperi. The conditions noted are these: Halobacillus trueperi, S10, 24 h; strain 10, 30 ug. The essentials: as §1
Test [8] deals with marine bacteria strain S17. Briefly: disc inhibition assay, strain S17. The note with it: Gordonia terrae, S17, 24 h; strain 17, 30 ug. In kind it is cell-based, Gordonia terrae. The essentials:
as §1

The test system of test [9] is marine bacteria strain S29. Kind of test: disc inhibition assay, strain S29. In kind it is cell-based, Bacillus hwajinpoensis. The note with it: Guptibacillus hwajinpoensis, S29, 24 h; strain 29, 30 ug. The gist of the method:
as §1

For test [10], the system named is marine bacteria strain S30. Briefly: disc inhibition assay, strain S30. The format is cell-based, Bacillus borophilicus. The note with it: Bacillus, S30, 24 h; strain 30, 30 ug. The essentials: as §1
In test [11] the test system is Escherichia coli (Strain DH5a). Kind of test: disc inhibition assay, REF 2. The format is cell-based. The conditions noted are these: REF 2, 30 ug. As for the experimental part:
as §2, §3, §4

Test [12] concerns marine bacteria strain S14. Briefly: disc inhibition assay, strain S14. The note with it: Vibrio, S14, 24 h. In kind it is cell-based, Vibrio probioticus.
The subject of test [13] is marine bacteria strain S16. Kind of test: disc inhibition assay, strain S16. In kind it is cell-based, Pseudoalteromonas piscicida. The conditions noted are these: Pseudoalteromonas piscicida, S16, 24 h; strain 16, 30 ug. The essentials: as §1
Test [14] concerns marine bacteria strain S27. Briefly: disc inhibition assay, strain S27. The format is cell-based, Tenacibaculum lutimaris. The note with it: Tenacibaculum lutimaris, S27, 24 h; strain 27, 30 ug. The essentials: as §1
The subject of test [15] is marine bacteria strain S28. Briefly: disc inhibition assay, strain S28. The note with it: Arthrobacter, S28, 24 h; strain 28, 30 ug. The format is cell-based, Arthrobacter protophormial. The essentials: as §1
For test [16], the system named is marine bacteria strain S1. Kind of test: disc inhibition assay, strain S1. The note with it: Rhodovulum iodosum, S1; strain 1, 30 ug. The format is cell-based, Rhodovulum iodosum. The gist of the method:
as §1

The subject of test [17] is marine bacteria strain S3. Kind of test: disc inhibition assay, strain S3. In kind it is cell-based, Erythrobacter aquimaris. The conditions noted are these: Qipengyuania aquimaris, S3, 24 h; strain 3, 30 ug. The essentials: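 Disc inhibition assay against a marine bacterial strain isolated from fouling communities in Singapore coastal waters. The strain was grown in marine broth and swabbed over Marine Agar plates as a lawn. 6 mm sterile discs loaded with compound in DMSO, or DMSO controls, were placed on the plates and incubated overnight in the dark at 35° C.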

Where only a bound is given, the exact number is not on record here.

`O=C(N[C@H](CO)[C@H](O)c1ccc([N+](=O)[O-])cc1)C(Cl)Cl` [CHL, Chloramphenicol, reference compound]: the zone of inhibition at 30 µg/disc in test [1] is more than 10 mm; in [3], more than 10 mm; in test [5], 5 to 10 mm; in test [7] it was more than 10 mm; in test [8], more than 10 mm; in test [9], more than 10 mm. The zone of inhibition at 30 µg/disc in test [10] was 5 to 10 mm; in [12] it was 5 to 10 mm; in [13] it was 5 to 10 mm; in test [14], more than 10 mm; in test [15], more than 10 mm; in [16], 5 to 10 mm. In test [17], this compound came in with a zone of inhibition at 30 µg/disc of more than 10 mm. For the same compound, the zone of inhibition entry in test [2], in [4], in test [6] and in test [11] was “++ (5-10 mm zone was observed.)” each time.

A word on the zone of inhibition: it is the size of the clear area around the sample on an inoculated plate. A high value points to a stronger effect on the plate.
